# Source: patent US7323436B2, “Adduct having an acidic solution of sparingly-soluble group IIA complexes” (priority 1999, dated 2008)
# Assay: Contact with human skin and nose
# Assay type: in vivo
# Details: pH of less than 0.5
# Description: As discussed above, AGIIS has relatively less dehydrating properties (such as charring sucrose) as compared to the saturated solution of CaSO4 in the same concentration of H2SO4. […] AGIIS is non-volatile at room temperature.
smiles,measurement,value
O=S(=O)(O)O [sulfuric acid],irritation of a hand put into the solution,an irritation would occur within a relatively short span of time
